In US20190183900A1, “COMPOSITION FOR PROLIFERATION, DIFFERENTIATION PROMOTION, OR SENESCENCE INHIBITION OF STEM CELLS, CONTAINING JAK1 INHIBITOR AS ACTIVE INGREDIENT” (UNIVERSITY OF ULSAN FOUNDATION FOR INDUSTRY COOPERATION, priority 2016, published 2019):

Key:
stem cells [1] = assay: Western blotting of senescence, stemness, proliferation and TLR3 signaling proteins; format: cell-based; conditions: JAK1 inhibitor pretreated 2 hours before poly IC 1 ug/ml, 2 days after poly IC
Description: More specifically, the stem cells were plated in a 10 cm dish (3×10^5 cells/dish) and treated with poly IC (1 ug/ml) one day later. […] After 2 days of poly IC treatment, western blotting was performed for analyzing the protein expression. For this, the cells were treated with RIPA lysis buffer (1% Np-40, 0.5% Na-deoxycholate, 0.4% SDS, 0.15 M NaCl, 0.05 M Tris-HCl (pH 8), Halt Protease and Phosphatase Inhibitor Cocktail (78440, Thermo Scientific)) and reacted in ice for 30 minutes to extract the cells. The cell lysate was centrifuged and the supernatant was collected and quantified using bicinchoninic acid protein assay kit (23225, Thermo Scientific). 10 ug of the protein extract was separated by 12% SDS-PAGE and transferred to a nitrocellulose membrane. After reacting for 1 h in blocking buffer (0.1% Tween 20, 5% BSA in tris buffered saline) at room temperature (RT), the primary antibody was treated and reacted overnight at 4° C. […] After washing three times with TBST solution, peroxidase-conjugated secondary antibody was reacted for 1 hour at RT and protein bands were analyzed using C-DiGit Blot Scanner (LI-COR).

stem cells [2] = assay: real time PCR of senescence, stemness, proliferation and TLR3 signaling genes; format: cell-based; conditions: pre-treatment before poly IC
Description: The present inventors have confirmed the expression of proteins involved in proliferation and differentiation promotion of stem cell and stemness increase according to tofacitinib treatment using real time PCR. For this, cells were treated with TRIzol reagent to lyse the cells, and treated with chloroform to separate the aqueous solution layer containing the RNA. The separated aqueous solution was treated with isopropanol to precipitate RNA and centrifuged to extract RNA only. […] Real-time PCR was performed using the CFX Connect Real-Time PCR Detection System (Bio-rad) and primers used were shown in Table 1. Relative mRNA expression levels were analyzed using the comparative threshold cycles (2-^Ct) method.

stem cells [3] = conditions: FACS analysis and real time PCR; pre-treatment of tofacitinib before poly IC
Description: More specifically the stem cells were treated with trypsin/EDTA and separated into single cells and mouse anti-human HLA-ABC (555553, BD Biosciences) was reacted at RT for 1 hour and washed three times and then analyzed using a FACS calibur instrument (BD Biosciences).

stem cells [4] = assay: real time PCR of TGF-b and HGF, proteins that inhibit T cell activity; format: cell-based; conditions: pre-treatment of tofacitinib before poly IC
Description: For this, cells were treated with TRIzol reagent to lyse the cells, and treated with chloroform to separate the aqueous solution layer containing the RNA. The separated aqueous solution was treated with isopropanol to precipitate RNA and centrifuged to extract RNA only. The extracted RNA was quantified using nanodrop. 2 ug of RNA was synthesized using TOPscript cDNA synthesis kit (RT200, Enzynomics) as a cDNA mixture and used as a template for real time PCR. […] Relative mRNA expression levels were analyzed using the comparative threshold cycles (2-^Ct) method.

stem cells [5] = assay: BrdU assay of cell survival rate after poly IC; format: cell-based; conditions: tofacitinib 1 ug/ml pretreated 2 hours before poly IC 1 ug/ml; BrdU ELISA 2 days after poly IC
Description: More specifically, cells were plated in 96 wells (1×10^3 cells/well) and treated with poly IC (1 μg/ml) one day later. […] After 2 days of poly IC treatment, cell survival rate was measured using BrdU cell proliferation ELISA (11647229001, Roche). For this, the BrdU labeling solution was treated at 10 μl/well for 4 hours at 37° C. Then, fixdenat buffer was treated by 200 ul/well for 30 minutes to immobilize the cells and reacted with 100 ul/well of anti BrdU-POD solution for 90 minutes. Thereafter, 100 ul of the substrate solution was treated, the OD value at 370 nm wavelength was measured by ELISA, and the cell survival rate was plotted.

stem cells [6] = assay: SA-b-gal staining of poly IC-induced inflammatory senescence; format: cell-based; conditions: tofacitinib 1 ug/ml pretreated 2 hours before poly IC 1 ug/ml; measured 2 days after poly IC
Description: More specifically, stem cells were plated in 6 wells (2×10^4 cells/well) and treated with poly IC (1 ug/ml) one day later. […] After 2 days of the poly IC treatment, the degree of senescence was measured using senescence cells histochemical staining kit (CS0030, Sigma). For this, the plate was washed twice with PBS and fixed with fixation buffer (2% formaldehyde, 0.2% glutaraldehyde, 7.04 mM Na2HPO4, 1.47 mM KH2PO4, 0.137 M NaCl, and 2.68 mM KCl) for 6 minutes and reacted with staining buffer (6 mM Potassium Ferricyanide, 6 mM Potassium Ferrocyanide, 1 mg/ml X-gal Solution in phosphate buffer (pH 6)) at 37° C. for 24 hours. The number of b-galactoxidase-positive cells was measured by microscopic observation and the degree of cellular senescence was shown in a graph.

O=C(Nc1nc2cccc(-c3ccc(CN4CCS(=O)(=O)CC4)cc3)n2n1)C1CC1 [filgotinib]
expression of proteins associated with senescence (PCNA), stemness (EZH2, BMI-1), proliferation (survivin, CyclinD1) (stem cells [1]): less decreased
increase in expression of TLR3 signaling-related proteins (TLR3, IL6) (stem cells [1]): less increased
increase in expression of TLR3 signaling-related proteins (TLR3, IL6) (stem cells [2]): less increased
mRNA expression of the protein associated with senescence (PCNA), stemness (EZH2, BMI-1) and proliferation (survivin, CyclinD1) (stem cells [2]): less decreased

C[C@@H]1CCN(C(=O)CC#N)C[C@@H]1N(C)c1ncnc2[nH]ccc12 [tofacitinib]
increase of immunogenicity-related proteins HLA-A and HLA-B by poly IC treatment (stem cells [3]): less increased
decrease of TGF-b and HGF by treatment of poly IC (stem cells [4]): less decreased
cell survival rate by cellular senescence induced by poly IC (stem cells [5]): less decreased
expression of proteins associated with senescence (PCNA), stemness (EZH2, BMI-1), proliferation (survivin, CyclinD1) (stem cells [1]): less decreased
increase in expression of TLR3 signaling-related proteins (TLR3, IL6) (stem cells [1]): less increased
increase in expression of TLR3 signaling-related proteins (TLR3, IL6) (stem cells [2]): less increased
mRNA expression of the protein associated with senescence (PCNA), stemness (EZH2, BMI-1) and proliferation (survivin, CyclinD1) (stem cells [2]): less decreased
inflammatory senescence induced by poly IC (b-galactoxidase-positive cells) (stem cells [6]): significantly reduced
